Reference: patent publication US20250206724A1, “SUBSTITUTED 3-AMINO INDAZOLE DERIVATIVES AS KINASE INHIBITORS” (NERVIANO MEDICAL SCIENCES S.R.L., priority 2022, published 2025)
Structures can show the parent of a compound that is named as a salt. Where two headings read alike, the source gives them in different places.

Experiments:
NB-4 = test: Cytotoxicity assay (CellTiterGlo, 72 hours treatment), NB-4; assay type: cell-based, Human; conditions: NB-4 acute myeloid leukemia cells, ATP determination, read-out: Cell line IC50 NB-4
Experimental: (§1) Cell Lines and Cell Cultures
(§2) All cell lines were seeded at a density ranging from 2,400 to 8,000 cells/well in 384-well cell culture microplates and incubated at […] in a humidified 5% […] atmosphere 24 hours before treatment. Compound solutions were directly administered to the cells using the D300e digital dispenser (Tecan) to obtain scalar final concentrations ranging from 5 nM to 10 μM (duplicate wells for each point), with 80 uL final volume per well. The final DMSO concentration in test wells was adjusted to 0.1% (v/v); control wells were mock-treated and contained the same final concentration of DMSO.
(§3) Cell viability was determined after 72 hours treatment by ATP determination in each test well with a luciferase-based detection system (CellTiterGlo, Promega, Madison, WI, USA), following manufacturer's instructions. The intensity of emitted light was measured using an EnVision reader (PerkinElmer, Waltham, MA USA) and expressed as RLU. One to three independent experiments were performed for each cell line, as indicated.
(§4) Analysis of Antiproliferative Data
(§5) Cell growth inhibitory activity was evaluated comparing treated versus control data using the Assay Explorer software suite (Symix Technologies Inc.). IC50s values were calculated by sigmoidal fitting interpolation using the following quadriparametric Hill equation: […]
(§6) The Top, Bottom and Hill slope parameters were left free to assume any value, but only curves whose Hill slope had values between 0.5 and 4 were arbitrarily considered acceptable and used to calculate the average IC50s. Curves too steep (HillSlope≥4) or too slight (HillSlope≤0.5) were not included (Table C).

MOLM-13 = test: Cytotoxicity assay (CellTiterGlo, 72 hours treatment), MOLM-13; assay type: cell-based, Human; conditions: MOLM-13 acute myeloid leukemia cells, ATP determination, read-out: Cell line IC50 MOLM-13
Experimental: as §1, §2, §3, §4, §5, §6

CDK11A = molecular target: T1, CDK11A (Homo sapiens, UniProt Q9UQ88); conditions: displacement of SNS-032-Atto590 probe (0.002 μM) from CDK11A-p58 (0.032 uM), fluorescence polarization;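 note: compound preincubated 30 min with CDK11A-p58, then probe added and polarization (mP) read 15 min later, 0% displacement is probe plus enzyme, 100% is probe alone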
T1 sequence (Q9UQ88 346-783): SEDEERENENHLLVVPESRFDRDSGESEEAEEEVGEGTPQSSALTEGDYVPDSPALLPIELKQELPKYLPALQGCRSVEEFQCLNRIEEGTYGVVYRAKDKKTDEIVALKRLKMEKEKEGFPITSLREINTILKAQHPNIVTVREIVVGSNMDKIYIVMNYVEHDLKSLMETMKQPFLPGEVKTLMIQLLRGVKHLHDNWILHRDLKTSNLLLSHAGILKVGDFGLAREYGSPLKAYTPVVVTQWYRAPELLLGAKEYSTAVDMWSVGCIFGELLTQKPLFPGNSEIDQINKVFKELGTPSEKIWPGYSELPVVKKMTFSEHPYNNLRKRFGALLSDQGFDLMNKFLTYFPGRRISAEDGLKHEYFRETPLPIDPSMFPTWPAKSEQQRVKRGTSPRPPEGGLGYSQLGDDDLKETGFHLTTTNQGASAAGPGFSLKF
Experimental: Biochemical Kinase Inhibition Assay on CDK11 in Displacement Assay Format
Displacement Assay Format
Fluorescence Polarization (FP) experiments were carried out at room temperature using no-binding black 384-well microplates (Corning, NY), in 50 mM Tris HCl, pH 8, 10 mM MgCl2, 1 mM DTT, 1 mM CHAPS in a final volume of 60 μl. The plate reader was the Pherastar microplate reader (BMG). Polarization values were read using excitation and emission wavelengths of 590 and 675 nm, respectively. All FP values are expressed as mP units.
Compounds were 4-folds serially diluted in 100% DMSO and added directly to the CDK11A-p58 solution using the pin tool (V & P Scientific): 0.2 ul of the different compound concentrations in 20 ul of enzyme solution. After an incubation of 30 minutes at r.t., 40 ul of probe solution were added. […] The Pherastar reading is performed after 15 minutes of all components incubation. For each assay, high controls (equivalent to 0% displacement) contain probe, CDK11A-p58, and 0.33% DMSO, whereas low controls (equivalent to 100% displacement) contain only probe and 0.33% DMSO. Controls are used for the Z′ and signal to background evaluation.
The data per each molecule are analyzed by Prism SW or an internally customized version of the SW package “Assay Explorer” which provides sigmoidal fittings of the ten-dilution curves for DC50 determination using a 4 parameters logistic equation:
where x is the logarithm of the inhibitor concentration, y is the response; y starts at bottom and goes to top with a sigmoid shape.

EoL-1-cell = test: Cytotoxicity assay (CellTiterGlo, 72 hours treatment), EoL-1; assay type: cell-based, Human; conditions: ATP determination, read-out: Cell line IC50 EoL-1-cell
Experimental: as §1, §2, §3, §4, §5, §6

[1] = Homo sapiens, EOL1, 72 h, EoL-1 acute myeloid leukemia cells

Compound	IC50 (NB-4; Homo sapiens, NB-4, 72 h)	IC50 (MOLM-13; Homo sapiens, MOLM-13, 72 h)	DC50 (CDK11A)	IC50 (EoL-1-cell; [1])	IC50 (NB-4)	IC50 (MOLM-13)	IC50 (EoL-1-cell; EoL-1 acute myeloid leukemia cells)	IC50 (NB-4; Homo sapiens)	IC50 (MOLM-13; Homo sapiens)	IC50 (EoL-1-cell; Homo sapiens, EOL1, EoL-1 acute myeloid leukemia cells)
CC(=O)c1ccc(Cl)c(-c2ccc3[nH]nc(NC(=O)[C@@H]4CCCNC4)c3c2)c1 [cpd 33, (3R)-N-[5-(5-Acetyl-2-chlorophenyl)-1H-indazol-3-yl]piperidine-3-carboxamide hydrochloride]	1560 nM	1350 nM	19 nM	1380 nM	–	–	–	–	–	–
N#Cc1ccc(Cl)c(-c2ccc3[nH]nc(NC(=O)[C@@H]4CCCNC4)c3c2)c1 [compound 174, (3R)-N-[5-(2-Chloro-5-cyanophenyl)-1H-indazol-3-yl]piperidine-3-carboxamide hydrochloride]	171 nM	190 nM	23 nM	165 nM	–	–	–	–	–	–
O=C(Nc1n[nH]c2ccc(-c3c(F)cccc3Cl)cc12)C1CCCNC1 (stereo not shown) [compound 165, N-[5-(2-Chloro-6-fluorophenyl)-1H-indazol-3-yl]piperidine-3-carboxamide hydrochloride]	629 nM	463 nM	36 nM	484 nM	–	–	–	–	–	–
N#Cc1ccc(Cl)c(-c2ccc3[nH]nc(NC(=O)C4CCC5(CCCC5)NC4)c3c2)c1 (stereo not shown) [compound 185, N-[5-(2-Chloro-5-cyanophenyl)-1H-indazol-3-yl]-6-azaspiro[4.5]decane-8-carboxamide hydrochloride]	204 nM	261 nM	21 nM	294 nM	–	–	–	–	–	–
CCNC1CC(C(=O)Nc2n[nH]c3ccc(-c4cc(C#N)ccc4Cl)cc23)C1 (stereo not shown) [compound 152, N-[5-(2-Chloro-5-cyanophenyl)-1H-indazol-3-yl]-3-(ethylamino)cyclobutanecarboxamide hydrochloride]	226 nM	203 nM	31 nM	191 nM	–	–	–	–	–	–
N#Cc1ccc(Cl)c(-c2ccc3[nH]nc(NC(=O)C4CCCNC4)c3c2)c1 (stereo not shown) [compound 171, N-[5-(2-Chloro-5-cyanophenyl)-1H-indazol-3-yl]piperidine-3-carboxamide hydrochloride]	416 nM	520 nM	28 nM	332 nM	–	–	–	–	–	–
N#Cc1ccc(F)c(-c2ccc3[nH]nc(NC(=O)[C@@H]4CCCNC4)c3c2)c1 [cpd 25, (3R)-N-[5-(5-Cyano-2-fluorophenyl)-1H-indazol-3-yl]piperidine-3-carboxamide hydrochloride]	1660 nM	2860 nM	31 nM	1720 nM	–	–	–	–	–	–
N#Cc1ccc(Cl)c(-c2ccc3[nH]nc(NC(=O)[C@@H]4CCNC4)c3c2)c1 [compound 176, (3R)-N-[5-(2-Chloro-5-cyanophenyl)-1H-indazol-3-yl]pyrrolidine-3-carboxamide hydrochloride]	384 nM	505 nM	18 nM	425 nM	–	–	–	–	–	–
N#Cc1ccc(Cl)c(-c2ccc3[nH]nc(NC(=O)C4CCC5(CCCCC5)NC4)c3c2)c1 (stereo not shown) [compound 186, N-[5-(2-Chloro-5-cyanophenyl)-1H-indazol-3-yl]-1-azaspiro[5.5]undecane-3-carboxamide hydrochloride]	365 nM	303 nM	65 nM	315 nM	–	–	–	–	–	–
CNC1CC(C(=O)Nc2n[nH]c3ccc(-c4c(Cl)cccc4Cl)cc23)C1 (stereo not shown) [compound 145, N-[5-(2,6-Dichlorophenyl)-1H-indazol-3-yl]-3-(methylamino)cyclobutanecarboxamide hydrochloride]	520 nM	483 nM	44 nM	663 nM	–	–	–	–	–	–
CC1(C)CCC(C(=O)Nc2n[nH]c3ccc(-c4cc(C#N)ccc4Cl)cc23)CN1 (single isomer, unassigned; (-)) [compound 203, (−)-N-[5-(2-Chloro-5-cyanophenyl)-1H-indazol-3-yl]-6,6-dimethylpiperidine-3-carboxamide]	–	–	181 nM	–	1320 nM	1380 nM	1250 nM	–	–	–
O=C(Nc1n[nH]c2ccc(-c3cc([N+](=O)[O-])ccc3Cl)cc12)[C@@H]1CCCNC1 [cpd 26, (3R)-N-[5-(2-Chloro-5-nitrophenyl)-1H-indazol-3-yl]piperidine-3-carboxamide hydrochloride]	–	–	23 nM	–	–	–	–	141 nM	154 nM	126 nM
N#Cc1ccc(Cl)c(-c2ccc3[nH]nc(NC(=O)[C@@H]4CCC5(CCCCC5)NC4)c3c2)c1 (single isomer, unassigned) [compound 206, (3+)-N-[5-(2-Chloro-5-cyanophenyl)-1H-indazol-3-yl]-1-azaspiro[5.5]undecane-3-carboxamide]	205 nM	194 nM	23 nM	180 nM	–	–	–	–	–	–
